Converted amounts (≈) assume the structure as drawn. “And” between values parts separate entries of the source, which are not always exact repeats. Identical values can stand only once. Like-named read-outs stand apart in the source and are kept apart here.
How the values were obtained:
μ opioid receptor [1] = target: T1, μ opioid receptor (Homo sapiens, UniProt P35372); conditions: cloned human μ receptor; mean (SE), at least three independent experiments
κ opioid receptor [2] = target: T2, κ opioid receptor (Homo sapiens, UniProt P41145); conditions: for Ke κ, U69,593: cloned human κ receptor, mean (SE), at least three independent experiments; for μ/κ: selectivity for κ relative to μ; for μ/κ / δ/κ: ratio of Ke values; for δ/κ: selectivity for κ relative to δ
T2 sequence (P41145 whole entry): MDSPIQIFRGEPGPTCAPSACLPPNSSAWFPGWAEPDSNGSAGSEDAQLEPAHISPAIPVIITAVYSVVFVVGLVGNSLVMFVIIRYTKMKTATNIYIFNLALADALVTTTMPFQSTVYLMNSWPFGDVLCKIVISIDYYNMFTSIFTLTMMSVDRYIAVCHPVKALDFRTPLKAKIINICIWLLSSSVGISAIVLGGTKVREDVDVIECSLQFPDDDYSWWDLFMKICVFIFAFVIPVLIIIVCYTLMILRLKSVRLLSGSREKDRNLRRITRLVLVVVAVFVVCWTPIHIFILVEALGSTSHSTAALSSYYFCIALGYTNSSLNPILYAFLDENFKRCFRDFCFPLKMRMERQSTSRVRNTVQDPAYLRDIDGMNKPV

δ opioid receptor [3] = target: T3, δ opioid receptor (Homo sapiens, UniProt P41143); conditions: for behaviour at the δ receptor: δ opioid receptor [35S]GTPγS assay, result in words; for Ke δ, DPDPE: cloned human δ receptor
T3 sequence (P41143 whole entry): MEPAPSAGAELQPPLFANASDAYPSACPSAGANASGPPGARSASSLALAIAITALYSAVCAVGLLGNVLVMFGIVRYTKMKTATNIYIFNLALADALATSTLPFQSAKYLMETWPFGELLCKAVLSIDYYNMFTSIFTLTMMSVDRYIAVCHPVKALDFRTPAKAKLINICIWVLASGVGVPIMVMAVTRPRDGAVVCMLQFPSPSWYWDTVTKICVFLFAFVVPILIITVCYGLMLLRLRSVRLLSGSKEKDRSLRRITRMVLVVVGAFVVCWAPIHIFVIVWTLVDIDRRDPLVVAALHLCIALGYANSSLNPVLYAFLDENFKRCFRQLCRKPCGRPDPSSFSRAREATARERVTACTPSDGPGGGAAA

MDCK-MDR1 cells = test: MDCK-MDR1 permeability; conditions: percent transported from the optical to basal side
[4] = Kinetic solubility, 96-well plate assay; type: physicochemical; conditions: for solubility at 90 min: phosphate buffer
δ opioid receptor [5] = target: T3, δ opioid receptor; test: biochemical
[6] = Parallel artificial membrane permeability assay; type: in vitro ADME; conditions: 4 h; for PAMPA pH 5.5, percent transported: pH 5.5, 10 μM; for PAMPA pH 7.4, percent transported: pH 7.4, 10 μM
κ opioid receptor [7] = target: T2, κ opioid receptor; test: biochemical
hERG channel = hERG channel (Homo sapiens, UniProt Q12809); test: hERG [3H]astemizole radioligand displacement assay
Sequence of hERG channel (Q12809 whole entry): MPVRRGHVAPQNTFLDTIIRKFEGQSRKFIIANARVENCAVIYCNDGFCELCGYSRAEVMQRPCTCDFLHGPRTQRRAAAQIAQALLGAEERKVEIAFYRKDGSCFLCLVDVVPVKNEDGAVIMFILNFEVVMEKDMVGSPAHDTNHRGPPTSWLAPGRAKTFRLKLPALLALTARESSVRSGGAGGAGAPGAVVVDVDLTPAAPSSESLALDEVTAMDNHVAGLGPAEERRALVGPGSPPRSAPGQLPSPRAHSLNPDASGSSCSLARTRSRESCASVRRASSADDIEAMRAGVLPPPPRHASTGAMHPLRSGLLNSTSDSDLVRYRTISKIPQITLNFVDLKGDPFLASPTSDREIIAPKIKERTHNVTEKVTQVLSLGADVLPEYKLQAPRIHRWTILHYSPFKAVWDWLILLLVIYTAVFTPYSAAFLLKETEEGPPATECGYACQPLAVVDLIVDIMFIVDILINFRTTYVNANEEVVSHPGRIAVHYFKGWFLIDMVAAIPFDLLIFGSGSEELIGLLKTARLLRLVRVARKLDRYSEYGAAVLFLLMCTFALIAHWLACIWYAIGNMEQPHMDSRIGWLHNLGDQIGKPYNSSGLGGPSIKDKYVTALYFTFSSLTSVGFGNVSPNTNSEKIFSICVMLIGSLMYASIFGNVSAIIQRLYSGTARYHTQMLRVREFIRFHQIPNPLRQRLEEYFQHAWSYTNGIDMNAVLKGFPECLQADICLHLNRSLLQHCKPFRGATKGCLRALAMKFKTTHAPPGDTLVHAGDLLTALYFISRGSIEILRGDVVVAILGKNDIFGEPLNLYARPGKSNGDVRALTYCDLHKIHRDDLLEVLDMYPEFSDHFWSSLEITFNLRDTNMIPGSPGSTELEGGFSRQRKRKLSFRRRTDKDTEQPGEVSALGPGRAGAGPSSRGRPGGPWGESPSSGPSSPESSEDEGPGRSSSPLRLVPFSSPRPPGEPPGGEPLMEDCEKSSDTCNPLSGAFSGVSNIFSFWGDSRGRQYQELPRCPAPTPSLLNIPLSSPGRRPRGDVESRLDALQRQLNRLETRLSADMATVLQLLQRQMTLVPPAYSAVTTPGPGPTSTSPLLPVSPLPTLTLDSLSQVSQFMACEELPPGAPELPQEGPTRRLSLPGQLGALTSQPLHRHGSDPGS

μ opioid receptor [8] = target: T1, μ opioid receptor; test: biochemical
δ opioid receptor [9] = conditions: read-out: Ki δ; cited from earlier work
[10] = mean (SE), at least three independent experiments

T1 sequence (P35372 whole entry): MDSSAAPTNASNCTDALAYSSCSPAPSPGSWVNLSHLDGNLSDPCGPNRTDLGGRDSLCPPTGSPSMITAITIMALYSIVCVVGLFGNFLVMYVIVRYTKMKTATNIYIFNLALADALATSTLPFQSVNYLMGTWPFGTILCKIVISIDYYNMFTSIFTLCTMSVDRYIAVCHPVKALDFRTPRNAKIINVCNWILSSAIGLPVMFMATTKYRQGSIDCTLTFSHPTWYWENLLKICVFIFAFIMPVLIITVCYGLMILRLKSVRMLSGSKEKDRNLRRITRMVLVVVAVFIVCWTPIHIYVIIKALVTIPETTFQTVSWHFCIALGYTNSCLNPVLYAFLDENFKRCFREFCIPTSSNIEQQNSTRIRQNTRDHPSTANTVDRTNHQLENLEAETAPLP

Compound | Ke μ, DAMGO (μ opioid receptor [1]) | Ke κ, U69,593 (κ opioid receptor [2]) | μ/κ (κ opioid receptor [2]) | plasma stability (% of parent) (Plasma stability) | S9 stability (% of parent) (S9 stability) | MDCK, percent transported (MDCK-MDR1 cells) [%] | δ/κ (κ opioid receptor [2]) | Ke δ, DPDPE (δ opioid receptor [3]; [10]) | further results
(3R)-7-Fluoro-N-[(1S)-1-{[(3R,4R)-4-(3-Fluorophenyl)-3,4-dimethylpiperidin-1-yl]methyl}-2-methylpropyl]-1,2,3,4-tetrahydroisoquinoline-3-carboxamide [Compound 12] | 360 ± 63 nM | 2.22 nM and 2.22 ± 0.47 nM | 162 | – | – | – | – | – | behaviour at the δ receptor (δ opioid receptor [3]): weak inverse agonist
CC(C)[C@@H](CN1CC[C@@](C)(c2cccc(O)c2)[C@@H](C)C1)NC(=O)[C@H]1Cc2ccc(O)cc2CN1 [JDTic, (3R)-1,2,3,4-tetrahydro-7-hydroxy-N-[(1S)-1-[[(3R,4R)-4-(3-hydroxyphenyl)-3,4-dimethyl-1-piperidinyl]methyl]-2-methylpropyl]-3-isoquinolinecarboxamide, reference compound] | – | – | – | 97 % of parent | 76 % of parent | 11 | – | – | –
CC(C)[C@@H](CN1CC[C@@](C)(c2cccc(C(N)=O)c2)[C@@H](C)C1)NC(=O)[C@H]1Cc2ccc(C(N)=O)cc2CN1 [Compound 14, (3R)-N^3-[(1S)-1-{[(3R,4R)-4-(3-Carbamoylphenyl)-3,4-dimethylpiperidin-1-yl]methyl}-2-methylpropyl]-1,2,3,4-tetrahydroisoquinoline-3,7-dicarboxamide] | – | – | 230 | 55.3 % of parent | 90.9 % of parent | 14 | 4700 | – | solubility at pH 7.4 ([4]; pH 7.4): > 20%; solubility at 90 min ([4]; pH 3): 100 µM (≈ 52 µg/mL); solubility at 90 min ([4]; pH 7.4): 81 µM (≈ 42.1 µg/mL); Kb (δ opioid receptor [5]): 517 ± 52 nM; PAMPA pH 5.5, percent transported [6]: 36.4%; PAMPA pH 7.4, percent transported [6]: 32.2%; Kb (κ opioid receptor [7]): 0.11 ± 0.02 nM; Ki (hERG channel): > 10000 nM; Kb (μ opioid receptor [8]): 25.3 ± 7.89 nM
(3R)-N-[(1S)-1-{[(3R,4R)-3,4-Dimethyl-4-phenylpiperidin-1-yl]methyl}-2-methylpropyl]-1,2,3,4-tetrahydroisoquinoline-3-carboxamide [Compound 11] | 724 ± 146 nM | 16 ± 7 nM | 45 | – | – | – | >188 | – | Ke δ, DPDPE (δ opioid receptor [3]): >3000 nM
(3R)-7-Fluoro-N-[(1S)-1-{[(3R,4R)-4-(3-Hydroxyphenyl)-3,4-dimethylpiperidine-1-yl]methyl}-2-methylpropyl]-1,2,3,4-tetrahydroisoquinoline-3-carboxamide [Compound 10] | 7.7 ± 0.9 nM | 2.20 ± 0.47 nM | 3.5 | – | – | – | – | – | behaviour at the δ receptor (δ opioid receptor [3]): weak inverse agonist
C[C@H]1CN(CC[C@H](O)C2CCCCC2)CC[C@@]1(C)c1cccc(O)c1 [LY255582] | – | – | – | – | – | – | – | – | Ki (δ opioid receptor [9]): 4.8 nM
(3R)-N-[(1S)-1-{[(3R,4R)-4-(3-Aminophenyl)-3,4-dimethylpiperidin-1-yl]methyl}-2-methylpropyl]-7-hydroxy-1,2,3,4-tetrahydroisoquinoline-3-carboxamide [Compound 8] | 10.6 nM and 10.6 ± 3.6 nM | 0.25 ± 0.09 nM | 42 | – | – | – | 7600 | 1899 ± 657 nM | –
(3R)-N-[(1S)-1-{[(3R,4R)-4-(3-Chlorophenyl)-3,4-dimethylpiperidin-1-yl]methyl}-2-methylpropyl]-7-hydroxy-1,2,3,4-tetrahydroisoquinoline-3-carboxamide [Compound 6] | 6.81 ± 2.6 nM | 0.039 ± 0.001 nM | 175 | – | – | – | 17600 | 685 ± 99 nM | –
(3R)-N-[(1S)-1-{[(3R,4R)-4-(3-Hydroxyphenyl)-3,4-dimethylpiperidin-1-yl]methyl}-2-methylpropyl]-7-1,2,3,4-tetrahydroisoquinoline-3-carboxamide [Compound 9] | 16 ± 5 nM | 4.3 ± 2 nM | 3.7 | – | – | – | 37 | 158 nM and 158 ± 49 nM | –
(3R)-N^3-[(1S)-1-{[(3R,4R)-3,4-Dimethyl-4-phenylpiperidin-1-yl]methyl}-2-methylpropyl]-1,2,3,4-tetrahydroisoquinoline-3,7-dicarboxamide [Compound 15] | 6.70 ± 2.1 nM | 0.041 ± 0.006 nM | 163 | – | – | – | 2700 | 111 ± 29 nM | –
CC(C)[C@@H](CN1CC[C@@](C)(c2ccccc2)[C@@H](C)C1)NC(=O)[C@H]1Cc2ccc(O)cc2CN1 [Compound 4, (3R)-N-[(1S)-1-{[(3R,4R)-3,4-Dimethyl-4-phenylpiperidin-1-yl]methyl}-2-methylpropyl]-7-hydroxy-1,2,3,4-tetrahydroisoquinoline-3-carboxamide] | – | – | – | 67.0 % of parent | 82.0 % of parent | 27 | – | – | –
CC(C)[C@@H](CN1CC[C@@](C)(c2cccc(O)c2)[C@@H](C)C1)NC(=O)[C@H]1Cc2ccc(C(N)=O)cc2CN1 [Compound 13, (3R)-N^3-[(1S)-1-{[(3R,4R)-4-(3-Hydroxyphenyl)-3,4-dimethylpiperidin-1-yl]methyl}-2-methylpropyl]-1,2,3,4-tetrahydroisoquinoline-3,7-dicarboxamide] | – | – | 355 | 84.7 % of parent | 91.5 % of parent | 17 | 6550 | – | solubility at pH 7.4 ([4]; pH 7.4): > 20%; solubility at 90 min ([4]; pH 3): 77 µM (≈ 37.9 µg/mL); solubility at 90 min ([4]; pH 7.4): 38 µM (≈ 18.7 µg/mL); Kb (δ opioid receptor [5]): 131 ± 23 nM; PAMPA pH 5.5, percent transported [6]: 39.1%; PAMPA pH 7.4, percent transported [6]: 28.3%; Kb (κ opioid receptor [7]): 0.02 ± 0.005 nM; Ki (hERG channel): > 10000 nM; Kb (μ opioid receptor [8]): 7.09 ± 2.58 nM
(3R)-N-[(1S)-1-{[(3R,4R)-4-(3-Bromophenyl)-3,4-dimethylpiperidin-1-yl]methyl}-2-methylpropyl]-7-hydroxy-1,2,3,4-tetrahydroisoquinoline-3-carboxamide [Compound 7] | 6.56 ± 0.44 nM | 0.268 nM and 0.268 ± 0.01 nM | 25 | – | – | – | 2200 | 594 ± 160 nM | –

From article PMC4161151 (Journal of Medicinal Chemistry, 2014)
